{"source": "patent US20020076722A1", "about": "“Antibiotic hypersusceptibility mutations in bacteria” (priority 2000, published 2002)", "key": {"[1]": {"test_system": "Acinetobacter library cells", "assay": "Inhibition of growth of Acinetobacter library cells by ampicillin in liquid culture", "assay_type": "cell-based, Acinetobacter sp. strain BD413", "protocol": "Clones hypersusceptible to the β-lactam drug ampicillin, an antibiotic that is well known to cause bacterial lysis, were selected. As compared to E. coli, Acinetobacter is remarkably resistant to ampicillin.\nTo purify the DNA released, bacterial cells from the insertional library of Acinetobacter were diluted in LB medium to OD600 0.025 and allowed to grow at 37° C. to OD600 0.1. Ampicillin was added to 5 ml aliquots of the culture at a variety of concentrations. After two hours, the cells were removed by centrifugation. DNA released into the medium in response to incubation with ampicillin was purified using a variation of the Wizard DNA purification protocols of Promega. Specifically, three grams of guanidine-HCl was dissolved in 5 ml of the culture medium and 1 ml of the slurry of DNA-binding silica resin (Promega Wizard DNA purification resin) was added. After a 5 min incubation with shaking, the resin was collected in a mini-column by passing the slurry through it with a syringe. […]\nCells of a frozen insertional library of Acinetobacter were diluted in LB medium to OD600 0.025 and allowed to grow at 37° C. to OD600 0.1, at which point ampicillin was added to 5 ml aliquots of the culture at the indicated concentrations. Two hours later the density of the cultures was measured, cells were removed by centrifugation and the DNA released into the medium was purified. […]"}, "[2]": {"test_system": "Acinetobacter library cells and SDR-selected clones", "assay": "Growth of clones replica-plated on LB-agar plates with different concentrations of ampicillin", "assay_type": "cell-based, Acinetobacter sp.", "protocol": "Each individual clone was inoculated into a well of a 96-well plate. When the cultures reached the density of approx. OD600 0.2-0.5, they were transferred by using a 6×8-pin replicator onto LB-agar plates containing kanamycin (25 μg/ml) and different concentrations of ampicillin. Plates were digitally scanned after 24 hr of incubation at 37° C. (FIG. 3). The spots indicated as Library are identical cultures from the original library and serve here as controls.\nThe computer scans of different plates were combined in a single set. This study has been conducted essentially as described in Example 2."}, "LIT1 strain": {"test_system": "LIT1 strain", "assay": "Release of DNA and growth of the LIT1 lysis reporter strain with translational inhibitors", "assay_type": "cell-based, Acinetobacter", "details": "LIT1 clone; for DNA released in presence of antibiotic versus absence, normalized per ml of culture: 2 h (chloramphenicol) or 1.5 h (erythromycin, tetracycline)", "protocol": "The LIT1 cells were inoculated in LB at OD600 0.05 and grown at 37° C. to OD600 0.2 at which time antibiotics were added at indicated concentrations. Two (chloramphenicol) or 1.5 (erythromycin and tetracycline) hours later the OD600 of the cultures were measured, cells were spun down and the released DNA was purified as described above. The amounts of DNA in μg normalized per milliliter of culture was determined fluorimetrically by adding an aliquot of the isolated DNA to the solution of ethidium bromide (0.5 μg/ml) and measuring the fluorescence at λex 540 and λem 580 nm (FIG. 7). The values obtained were compared with the calibration curve for known amounts of DNA."}, "[3]": {"test_system": "alkM model strain (lysis cassette under alkM promoter)", "assay": "Induction of DNA release by hexadecane in the alkM model strain", "assay_type": "cell-based, Acinetobacter", "protocol": "(§1) FIG. 6—Gene organization in the alkM model strain and induction of DNA release before and after SDR selection. Transformants 1 and 2 and the derivative of the transformant 1 after four cycles of SDR selection were grown to OD600 0.3 and a drop of hexadecane was added to 5 ml of the culture. After overnight incubation (induction of the alkM expression occurs only in stationary phase (Ratajczak et al., J. Bacteriol. 180(22):5822-7, 1998)) the released DNA was purified from the medium as described in the text.\n(§2) A model strain of Acinetobacter with the lysis cassette of λ inserted under the control of a antibiotic-inducible promoter was constructed and determined to release DNA in response to the antibiotic inducer. A promoter of the alkM gene of Acinetobacter, which encodes an enzyme involved in degradation of hydrocarbons and whose expression is activated dramatically by hexadecane, was chosen (Ratajczak et al., 1998). The promoter-less lysis cassette was PCR-amplified from the DNA of λ. The 5′-end of the gene of S-protein, which is the limiting factor in lysis (Young, 1992), was modified by an appropriately designed PCR primer. In particular, the alternative start codon from which an inhibitory variant of S is translated has been eliminated by mutation. […]"}, "wild-type Acinetobacter": {"test_system": "wild-type Acinetobacter", "assay": "DNA release by hexadecane in wild-type Acinetobacter", "assay_type": "cell-based", "protocol": "as §1, §2"}, "E. Coli": {"test_system": "E. Coli", "details": "bulgecin as known inhibitor of Slt; cited from earlier work"}}, "data": [{"compound": "CC1(C)S[C@@H]2[C@H](NC(=O)[C@H](N)c3ccccc3)C(=O)N2[C@H]1C(=O)O", "note": "[ampicillin]", "values": [{"measurement": "growth inhibition at the concentrations used for SDR selection", "setting": "[1]; 1, 3 and 9 μg/ml ampicillin, little lysis", "value": "only moderate growth inhibition"}, {"measurement": "ampicillin concentration at which slow growth was still observed", "setting": "[1]; liquid culture, LB, 37° C., two hours", "value": 729, "unit": "µg/mL"}, {"measurement": "ampicillin concentration on plates at which library cells were still growing", "setting": "[2]; original library cells, LB-agar, 24 hr", "value": 32, "unit": "µg/mL"}, {"measurement": "ampicillin concentration at which clones could not grow", "setting": "[2]; seventeen of 30 tested clones selected with 3 μg/ml of ampicillin", "value": 1, "unit": "µg/mL"}]}, {"compound": "O=C(N[C@H](CO)[C@H](O)c1ccc([N+](=O)[O-])cc1)C(Cl)Cl", "note": "[chloramphenicol]", "values": [{"measurement": "increase of released DNA normalized per number of cells", "setting": "LIT1 strain", "value": "approximately ten-fold"}, {"measurement": "DNA released in presence of antibiotic versus absence, normalized per ml of culture", "setting": "LIT1 strain", "value": "four times more"}]}, {"compound": "CC[C@H]1OC(=O)[C@H](C)[C@@H](O[C@H]2C[C@@](C)(OC)[C@@H](O)[C@H](C)O2)[C@H](C)[C@@H](O[C@@H]2O[C@H](C)C[C@H](N(C)C)[C@H]2O)[C@](C)(O)C[C@@H](C)C(=O)[C@H](C)[C@@H](O)[C@]1(C)O", "note": "[erythromycin]", "values": [{"measurement": "increase of released DNA normalized per number of cells", "setting": "LIT1 strain", "value": "approximately ten-fold"}, {"measurement": "DNA released in presence of antibiotic versus absence, normalized per ml of culture", "setting": "LIT1 strain", "value": "four-fold"}]}, {"compound": "CCCCCCCCCCCCCCCC", "note": "[hexadecane]", "values": [{"measurement": "effect on optical density of the culture", "setting": "[3]; model strain before SDR selection", "value": "did not cause significant reduction"}, {"measurement": "effect on amount of DNA released", "setting": "[3]; transformants, drop of hexadecane in 5 ml culture, overnight", "value": "significant increase"}, {"measurement": "effect on release of DNA", "setting": "wild-type Acinetobacter", "value": "no effect"}]}, {"compound": "CN(C)[C@@H]1C(O)=C(C(N)=O)C(=O)[C@@]2(O)C(O)=C3C(=O)c4c(O)cccc4[C@@](C)(O)[C@H]3C[C@@H]12", "note": "[tetracycline]", "values": [{"measurement": "increase of released DNA normalized per number of cells", "setting": "LIT1 strain", "value": "~35", "unit": "fold"}]}, {"compound": "bulgecin", "values": [{"measurement": "effect on sensitivity to the β-lactam antibiotic cefoxitin", "setting": "E. Coli", "value": "increase the sensitivity"}]}]}
